Measured values taken from US20240415919A1, “COMPOSITIONS AND METHODS FOR TREATMENT OF AUTOIMMUNE DISORDERS AND CANCER” (Dana-Farber Cancer Institute, Inc., priority 2021, published 2024).
“Also recorded” adds a separate entry of the source.

System: FL9 T cells
Assay: Activation (CD69) of FL9 TCR+ hybridoma / FL9 T cells by peptide-loaded EL4 (Qa-1+) cells
Format: cell-based, mouse
Settings: 0, 1, 3 and 10 μg/ml, compared with cognate FL9 self-peptide
Experimental: FIG. 4 provides a graphical representation showing a Qa-1-peptide yeast library, which identified peptides with superagonistic activity. FL9 T cells were stimulated with EL4 (Qa-1+) cells in the presence of surrogate peptides selected from peptide-Qa-1 yeast library for 3 days. Activation status of FL9 T cells was measured by CD69 expression.
FIG. 58A-C and FIG. 58D-E provides representation showing identification of superagonists for FL9 T cells. FIG. 58(A) provides a schematic showing a library composed of 96 FL9 peptide variants (crude peptides) was generated by aa mutagenesis at the Qa-1 anchoring positions (p2, p3, p6, p^7 and p9). FL9 TCR^+ hybridomas were incubated with EL4 cells (Qa-1^+) loaded with each FL9 peptide variant for 12 hrs and CD69 expression and TCR downregulation were measured as an indication of TCR stimulation. […] Expression of Vα3.2 and Vβ5 on EL4 cells (trogocytosis) was measured (right). […] Dose-dependent activation of FL9 T cells was measured by culturing FL9.2 T cells with EL4 (Qa-1^+) at various concentrations of indicated peptides (0, 1, 3 and 10 μg/ml). […] Six days later, proliferation of FL9.2 T cells (CD45.2^+Vα3.2^+VD5^+) was measured by CFSE dilution (left). CD45.1^+ B6 mice were immunized with Ova323-339 peptide in CFA on day 6 and the frequency of I-A^b/Ova323-339 Tet^+ CD4 cells in activated (CD44^+) CD4 cells was analyzed on day 14. […]

“FYAEATLML [FL9-68, FL9 peptide variant containing a P→L substitution at pos 7; superagonist for CD8 Treg]” was tested, and the “stimulatory activity for FL9 T cells / FL9.2 and FL9.8 TCRs (CD69 expression)” value was “superior ability to activate FL9 T cells; also recorded: superior ability to stimulate FL9 T cells; also recorded: markedly enhanced dose-dependent stimulatory activity; also recorded: significantly enhanced stimulating activity in vitro and in vivo; also recorded: significantly enhanced stimulatory activity in vitro and in vivo”.
